Source: patent publication US20220202811A1, “TREATMENT FOR RETINOIC ACID RECEPTOR-RELATED ORPHAN RECEPTOR Ɣ (RORƔ)-DEPENDENT CANCERS” (The Regents of the University of California, priority 2019, published 2022)

Assays:
IL-17 = assay: circulating IL-17 level in tumor-bearing KP^f/fC mice; format: in vivo, mouse; conditions: 120 mg/kg JTE-151 regimen, responding mice (FIGS. 59-60)
Description: Similarly, the anti-cancer effect of JTE-151 was tested on tumor-bearing KP^f/fC mice in vivo at a higher dose of 120 mg/kg (FIGS. 59-61 showing three individual experiments). For each experiment, one mouse was given vehicle treatment, and another mouse was given the JTE-151 regimen as specified in the figures. For example, in FIG. 59, the JTE-151 mouse received 120 mg/kg body weight of JTE-151 for 2 weeks and then 90 mg/kg JTE-151 for 1 week. In the first 1.5 weeks, JTE-151 was given once daily, and in the second 1.5 weeks, JTE-151 was given twice daily. […] In each of FIGS. 59-61, the horizontal axis of each graph represents the target (vehicle vs. JTE-151 mouse), and the vertical axis represents the specified measurement.

[1] = test system: human pancreatic cancer Fast Growing (FG) cells; assay: FG organoid assay; format: cell-based
Description: Similarly, the effects of JTE-151 at different doses were examined on human pancreatic cancer Fast Growing (FG) cells using the organoid assay (FIG. 69). Three doses of JTE-151 were tested: 0.3 μM, 1 μM, and 3 μM.

PDX1535 xenograft = assay: PDX1535 xenografts in mice; format: in vivo, human; conditions: JTE-151 90 mg/kg once per day
From the text: Finally, the impact of JTE-151 was examined in vivo on mice bearing primary patient-derived pancreatic cancer xenografts (FIGS. 70-78). […] FIGS. 70-72 show 3 rounds of treatment in an experiment using mice bearing PDX1356 xenographs. The horizontal axis of the first panel in each of FIGS. 70-72 represents days of treatment, and the vertical axis represents tumor volume. The horizontal axis of each of the remaining panels represents the target (vehicle vs. JTE-151 mouse), and the vertical axis represents the specified measurement. JTE-151 was given at the regimen as specified in the figures. For example, in the first round (FIG. 70), JTE-151 was given at 90 mg/kg body weight once per day for the first 25 days, then twice per day from day 26 though day 40.
Two other primary patient-derived xenografts, PDX1535 (FIGS. 74 and 75) and PDX1424 (FIGS. 76 and 77), were tested using JTE-151 at 90 mg/kg once per day. […] Considering the reduced tumor mass and cell numbers, the absence of a significant change in tumor volume may be due to necrotic cells that remained for a while post drug treatment.

human PDAC cells = assay: human PDAC (FG) flank tumors in immunocompromised mice; format: in vivo; conditions: compared to vehicle-treatment
Description: (§1) Subcutaneous tumor dimensions were measured with calipers 1-2× weekly.

pancreatic cancer cell = assay: in vitro sphere formation, antagonists of Table 2; format: cell-based, mouse; conditions: extent of growth suppression relative to control
Description: Pancreatic tumorsphere formation assays were performed and modified from (Rovira et al., 2010). Briefly, low-passage (<6 passages) WT or REM2-KP^f/fC cell lines were infected with lentiviral particles containing shRNAs; positively infected (red) cells were sorted 72 hours after transduction. 100-300 infected cells were suspended in tumorsphere media: 100 μl DMEM F-12 (Gibco, Life Technologies) containing 1× B-27 supplement (Gibco, Life Technologies), 3% FBS, 100 μM B-mercaptoethanol (Gibco, Life Technologies), 1× non-essential amino acids (Gibco, Life Technologies), 1× N2 supplement (Gibco, Life Technologies), 20 ng/ml EGF (Gibco, Life Technologies), 20 ng/ml bFGF2 (Gibco, Life Technologies), and 10 ng/ml ESGRO mLIF (Thermo Fisher). Cells in media were plated in 96-well ultra-low adhesion culture plates (Costar) and incubated at 37° C. for 7 days. KP^f/fC in vitro tumorsphere formation studies were conducted at a minimum of n=3 independent wells per cell line across two independent shRNA of n=3 wells; however, the majority of these experiments were additionally completed in >1 independently-derived cell lines n=3, at n=3 wells per shRNA.

Hmga2 = assay: target engagement by Hmga2 immunofluorescence in KP^f/fC tumors; format: in vivo, mouse; conditions: mid-point of the treatment regimen
Description: FIGS. 20A-20D show target engagement following RORγ inhibition in vivo, related to FIGS. 5A-5X. FIGS. 20A and 20B: Tumor-bearing KP^f/fC mice 9.5 weeks of age were treated with vehicle or SR2211 for two weeks (midpoint), after which tumors were isolated, fixed, and analyzed for target engagement of Hmga2 in epithelial cells by immunofluorescence. Quantification of Hmga2-positive epithelial cells in vehicle or SR2211 treated tumors (FIG. 20A) representative images (FIG. 20B). FIGS. 20C and 20D: Tumor-bearing KP^f/fC mice were treated from 8 weeks of age to endpoint with either vehicle or SR2211. Quantification of Hmga2-positive epithelial cells in vehicle or SR2211 treated tumors (FIG. 20C), representative images (FIG. 20D). Four frames were analyzed per mouse, n=2-4 mice per condition, Hmga2 (red), Keratin (green). Data represented as mean+/−S.E.M. *p<0.05, **p<0.01, ***p<0.001 by Student's t-test or One-way ANOVA. Grubb's test (p=0.1), was used to remove an outlier from the midpoint SR2211 treated group.
Pancreatic cancer tissue from KP^f/fC mice was fixed in Z-fix (Anatech Ltd, Fisher Scientific) and paraffin embedded at the UCSD Histology and Immunohistochemistry Core at The Sanford Consortium for Regenerative Medicine according to standard protocols. 5 μm sections were obtained and deparaffinized in xylene. […]

[2] = test system: primary patient derived xenografts; assay: primary patient derived xenografts, SR2211; conditions: human
Description: as §1

Compound	circulating IL-17 levels (IL-17)	FG organoid growth ([1]; JTE-151 (0.3 μM, 1 μM, 3 μM) in combination with 0.05 nM gemcitabine)	FG organoid growth ([1]; JTE-151 alone at 0.3 μM, 1 μM, and 3 μM)	EpCam+ tumor epithelial cells (PDX1535 xenograft)	EpCam+/CD133+ tumor stem cells (PDX1535 xenograft)	total cell counts (PDX1535 xenograft)	tumor mass (PDX1535 xenograft)	tumor volume or growth rate (PDX1535 xenograft)	reduction in tumor growth (human PDAC cells) [fold]	in vitro sphere formation (pancreatic cancer cell)	Hmga2 in pancreatic epithelial cells (Hmga2)	tumor growth in vivo [2]
Cc1ccc(NC(=O)C[C@H](CCC(=O)O)c2noc([C@H]3C[C@@H](CC(C)(C)C)C3)c2C2CC2)c(Cl)c1 [JTE-151, (4S)-6-[(2-chloro-4-methylphenyl)amino]-4-{4-cyclopropyl-5-[cis-3-(2,2-dimethylpropyl)cyclobutyl]isoxazol-3-yl}-6-oxohexanoic acid]	decrease	significant inhibition	significant inhibition	trend of decreased	trend of decreased	trend of decreased	trend of decreased	did not exhibit any significant difference				
OC(c1ccc(-c2ccc(CN3CCN(Cc4ccncc4)CC3)cc2)c(F)c1)(C(F)(F)F)C(F)(F)F [SR2211]									~6	✓✓✓✓ (dose response observed; growth suppressed by 8-fold or more relative to control)	downregulated	marked reduction
